Test results: BindingDB's records for doi:10.1021/jm00008a012 (University of Minnesota, 1995)

Columns and labels:
[1] = Tested for binding affinity against delta1 opioid receptor using [3H]-DPDPE as a radioligand in the guinea pig brain membranes.
[2] = Tested for binding affinity against delta2 opioid receptor using [3H]DSLET as a radioligand in the guinea pig brain membranes.

Oc1ccc2c3c1O[C@H]1c4c(c5ccccc5n4Cc4cccc(N=C=S)c4)C[C@@]4(O)C(C2)N(CC2CC2)CCC314 (stereo partly drawn) [22-cyclopropylmethyl-11-(3-isothiocyanatobenzyl)-14-oxa-11,22-diazaheptacyclo[13.9.1.01,13.02,21.04,12.05,10.019,25]pentacosa-4(12),5(10),6,8,15,17,19(25)-heptaene-2,16-diol] showed a Ki [1] of 4.2 nM and a Ki [2] of 7 nM.
For Oc1ccc2c3c1O[C@H]1c4c(c5ccccc5n4Cc4ccccc4N=C=S)C[C@@]4(O)C(C2)N(CC2CC2)CCC314 (stereo partly drawn) [22-cyclopropylmethyl-11-(2-isothiocyanatobenzyl)-14-oxa-11,22-diazaheptacyclo[13.9.1.01,13.02,21.04,12.05,10.019,25]pentacosa-4(12),5(10),6,8,15,17,19(25)-heptaene-2,16-diol], the Ki [1] was 2 nM and the Ki [2] was 3.6 nM.
O=C(CBr)Nc1cccc(Cn2c3c(c4ccccc42)C[C@@]2(O)C4Cc5ccc(O)c6c5C2(CCN4CC2CC2)[C@H]3O6)c1 (stereo partly drawn) [1N-{3-[22-cyclopropylmethyl-2,16-dihydroxy-14-oxa-11,22-diazaheptacyclo[13.9.1.01,13.02,21.04,12.05,10.019,25]pentacosa-4(12),5(10),6,8,15,17,19(25)-heptaen-11-ylmethyl]phenyl}-2-bromoacetamide] gave a Ki [1] of 0.019 nM and a Ki [2] of 0.038 nM.
Oc1ccc2c3c1O[C@H]1c4c(c5ccccc5n4Cc4ccc(N=C=S)cc4)C[C@@]4(O)C(C2)N(CC2CC2)CCC314 (stereo partly drawn) [22-cyclopropylmethyl-11-(4-isothiocyanatobenzyl)-14-oxa-11,22-diazaheptacyclo[13.9.1.01,13.02,21.04,12.05,10.019,25]pentacosa-4(12),5(10),6,8,15,17,19(25)-heptaene-2,16-diol] gave a Ki [1] of 5.3 nM and a Ki [2] of 5 nM.
